# Results reported in US10175228B2, “Method of using transmembrane channel-like protein 6 (TMC6) protein to identify substances affecting salty taste” (priority 2016, dated 2019).
# Target: T1, mouse TMC6 protein (Mus musculus, UniProt Q7TN60, A788T)
# T1 construct: expressed in transfected cells; host or cells: CHO-K1
# T1 sequence (Q7TN60 1-810 A788T): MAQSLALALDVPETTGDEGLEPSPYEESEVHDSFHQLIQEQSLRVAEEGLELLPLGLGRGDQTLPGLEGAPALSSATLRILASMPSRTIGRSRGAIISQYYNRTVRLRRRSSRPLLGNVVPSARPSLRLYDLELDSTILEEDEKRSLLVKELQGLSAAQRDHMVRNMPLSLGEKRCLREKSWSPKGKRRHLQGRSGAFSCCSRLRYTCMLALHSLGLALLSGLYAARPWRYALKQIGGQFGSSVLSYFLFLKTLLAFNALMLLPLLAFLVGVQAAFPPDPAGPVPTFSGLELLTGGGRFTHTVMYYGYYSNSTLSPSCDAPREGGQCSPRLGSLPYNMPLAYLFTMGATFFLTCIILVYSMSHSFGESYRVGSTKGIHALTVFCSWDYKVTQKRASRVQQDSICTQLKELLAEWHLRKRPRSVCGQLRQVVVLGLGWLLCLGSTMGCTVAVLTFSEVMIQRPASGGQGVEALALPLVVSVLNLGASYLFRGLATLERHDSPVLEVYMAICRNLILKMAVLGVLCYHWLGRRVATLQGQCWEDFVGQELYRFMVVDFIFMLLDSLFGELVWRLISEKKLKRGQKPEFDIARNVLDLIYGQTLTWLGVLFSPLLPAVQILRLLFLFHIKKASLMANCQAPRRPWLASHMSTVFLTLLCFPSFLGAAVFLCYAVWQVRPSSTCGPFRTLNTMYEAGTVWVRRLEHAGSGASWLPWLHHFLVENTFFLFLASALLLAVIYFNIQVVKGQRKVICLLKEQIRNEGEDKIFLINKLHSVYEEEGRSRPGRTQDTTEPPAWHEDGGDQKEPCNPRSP
# Assay: Calcium imaging (YC2.60 FRET) of CHO-K1 cells expressing the mouse TMC6 gene
# Assay type: cell-based
# Method: CHO-K1 cells were transfected with TMC6-pcDNA3.1 or pcDNA3.1 in combination with YC2.60-pcDNA, to prepare TMC6-expressing cells (cells expressing the mouse TMC6 gene and the YC2.60 gene) and control cells (cells expressing the YC2.60 gene). The prepared cells were stimulated, and activation of the cells was measured. The procedure was as follows.
# That is, first, CHO-K1 cells (ATCC) were inoculated into a culture dish having a diameter of 60 mm while adjusting the number of the cells to obtain 60% confluence, and cultured for 8 hr. As the medium, 5 mL of Ham's F-12K (Kaighn's) (Life Technologies) containing 10% fetal bovine serum (Life Technologies) was used. A 15 μL aliquot of FuGENE 6 (Promega) was added to 235 μL of Opti-MEM (Thermo Fisher Scientific), and incubated for 5 min at a room temperature. Then, 0.625 μg of TMC6-pcDNA3.1 and 2.5 μg of YC2.60-pcDNA were further added thereto, and incubated for 15 min at a room temperature. Then, the whole of the resultant mixture was dropped into the culture broth of the CHO-K1 cells, and the culture broth was mildly stirred. Then, the cells were further cultured for 18 hr under a condition of 5% CO2 at 37° C., to obtain the TMC6-expressing cells. Similarly, the control cells were obtained through transfection using pcDNA3.1 instead of TMC6-pcDNA3.1.
# After the cultivation, the culture broth was removed. A low-concentration NaCl solution (27 mM NaCl, 1 mM KCl, 0.4 mM CaCl2, 0.2 mM MgCl2, 2 mM Hepes (pH7.3), 1 mM NaHCO3, 2 mM glucose, 2 mM sodium pyruvate, and 112 mM NMDG-Cl) was added to the culture dish, incubation was carried out statically for 5 min, and then, stimulation and observation of cells were started. First, the low-concentration NaCl solution was perfused for approximately 80 sec, to provide a ground state. Then, a high-concentration NaCl solution (135 mM NaCl, 1 mM KCl, 0.4 mM CaCl2, 0.2 mM MgCl2, 2 mM Hepes (pH7.3), 1 mM NaHCO3, 2 mM glucose, and 2 mM sodium pyruvate) was perfused instead of the low-concentration NaCl solution for approximately 60 sec, to stimulate the cells. […]
structure (smiles),measurement,setting,value
"[Cl-].[Na+] [NaCl, sodium chloride]",relative FRET value (YFP/CFP) of the ROI-1 cell,"one typical TMC6-expressing cell, stimulation with high-concentration NaCl solution (135 mM NaCl), FIG. 13C",approximately 1.2
same,"change of YFP/CFP value (intracellular calcium concentration, cell activation)",stimulation with high-concentration NaCl solution (135 mM NaCl) for approx. 60 sec after 27 mM NaCl ground state,increase
